Measurements taken from ChEMBL document CHEMBL1141968, “A lead compound for the development of ABA 8'-hydroxylase inhibitors” (Bioorg Med Chem Lett, 2005).

Key:
[1] = biological target: T1, Abscisic acid 8'-hydroxylase 3 (Arabidopsis thaliana, UniProt Q9FH76); assay: Inhibitory activity against recombinant CYP707A3 in Arabidopsis
T1 sequence (Q9FH76 whole entry): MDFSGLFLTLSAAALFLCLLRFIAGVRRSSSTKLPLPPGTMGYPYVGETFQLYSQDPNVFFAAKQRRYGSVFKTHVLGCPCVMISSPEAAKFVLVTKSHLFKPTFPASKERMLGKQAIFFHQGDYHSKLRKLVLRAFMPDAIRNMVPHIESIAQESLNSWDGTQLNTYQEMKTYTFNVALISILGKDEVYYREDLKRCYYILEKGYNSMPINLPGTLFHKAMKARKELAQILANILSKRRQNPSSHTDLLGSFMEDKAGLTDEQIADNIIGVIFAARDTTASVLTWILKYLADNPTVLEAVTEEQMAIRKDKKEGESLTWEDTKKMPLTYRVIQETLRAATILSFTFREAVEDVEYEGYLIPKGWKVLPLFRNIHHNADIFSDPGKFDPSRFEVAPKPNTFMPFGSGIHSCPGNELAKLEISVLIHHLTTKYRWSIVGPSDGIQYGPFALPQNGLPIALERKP

[2] = biological target: T1, Abscisic acid 8'-hydroxylase 3; assay: Inhibitory activity against recombinant CYP707A3 in Arabidopsis at 50 uM
[3] = test system: Lactuca sativa; assay: Effect on seed germination in lettuce (Lactuca sativa L.Cv Grand Rapids); format: functional, organism-based
[4] = test system: Oryza sativa; assay: Effect on seed elongation in Rice (Oryza sativa L.Cv.Nipponbare); format: functional, organism-based

Compound	Ki [1]	inhibition at 50 µM [2]	IC50 [1]	IC50 [3]	IC50 [4]
CC1=CC(=O)C[C@](C)(C(F)F)[C@@]1(O)/C=C/C(C)=C\C(=O)O	170 nM				
C[C@H]1CCCC(C)(C)[C@@]1(O)/C=C/C=C\C(=O)O (racemic)	400 nM	90.9%	910 nM	> 300 µM	> 300 µM
C[C@H]1CCC[C@](C)(C(F)F)[C@@]1(O)/C=C/C=C\C(=O)O (racemic)	410 nM	94%	630 nM	150 µM	> 300 µM
CC1=CC(=O)CC(C)(C)[C@@]1(O)/C=C/C(C)=C\C(=O)O [(+)-ABSCISIC ACID]				12 µM	2 µM
